# Assay results as given in patent publication US20260266848A1, “COMPOSITIONS AND METHODS FOR DIAGNOSING AND TREATING DYSTONIA” (Duke University, priority 2023, published 2026).
# Test system: DYT-TOR1A MEF EVs
# Experiment: Quantitative LC-MS/MS proteomics of EVs from drug-treated DYT-TOR1A MEF cultures (ritonavir, salubrinal)
# Format: cell-based, mouse
smiles,measurement,setting,value
O=C(/C=C/c1ccccc1)NC(NC(=S)Nc1cccc2cccnc12)C(Cl)(Cl)Cl (stereo not drawn) [salubrinal],Acaa1a (ACAA1) EV abundance Cohen's d,"DYT + Sal/DYT, 20 μM, 24 h",−0.1738
same,Ano6 (ANO6) EV abundance Cohen's d,"DYT + Sal/DYT, 20 μM, 24 h",0.1593
same,Ap1b1 (AP1B1) EV abundance Cohen's d,"DYT + Sal/DYT, 20 μM, 24 h",−0.5479
same,Ar18b (ARL8B) EV abundance Cohen's d,"DYT + Sal/DYT, 20 μM, 24 h",−0.5773
same,Bzw2 (BZW2) EV abundance Cohen's d,"DYT + Sal/DYT, 20 μM, 24 h",0.2815
same,Cryab (CRYAB) EV abundance Cohen's d,"DYT + Sal/DYT, 20 μM, 24 h",1.101
same,DIst (DLST) EV abundance Cohen's d,"DYT + Sal/DYT, 20 μM, 24 h",−0.973
same,Ehd4 (EHD4) EV abundance Cohen's d,"DYT + Sal/DYT, 20 μM, 24 h",−0.4717
same,Flna (FLNA) EV abundance Cohen's d,"DYT + Sal/DYT, 20 μM, 24 h",0.4828
same,Fscn1 (FSCN1) EV abundance Cohen's d,"DYT + Sal/DYT, 20 μM, 24 h",0.7138
same,Gart (GART) EV abundance Cohen's d,"DYT + Sal/DYT, 20 μM, 24 h",0.6261
same,Hist1h1b (H1-5) EV abundance Cohen's d,"DYT + Sal/DYT, 20 μM, 24 h",0.4792
same,Hnrnpc (HNRNPC) EV abundance Cohen's d,"DYT + Sal/DYT, 20 μM, 24 h",−0.5111
same,Ipo9 (IPO9) EV abundance Cohen's d,"DYT + Sal/DYT, 20 μM, 24 h",0.1652
same,Jam3 (JAM3) EV abundance Cohen's d,"DYT + Sal/DYT, 20 μM, 24 h",−0.5387
same,Lipg (LIPG) EV abundance Cohen's d,"DYT + Sal/DYT, 20 μM, 24 h",0.6163
same,Lrrc59 (LRRC59) EV abundance Cohen's d,"DYT + Sal/DYT, 20 μM, 24 h",0.4615
same,Mapk3 (MAPK3) EV abundance Cohen's d,"DYT + Sal/DYT, 20 μM, 24 h",−0.3187
same,Mars (MARS1) EV abundance Cohen's d,"DYT + Sal/DYT, 20 μM, 24 h",−0.2456
same,Mrc2 (MRC2) EV abundance Cohen's d,"DYT + Sal/DYT, 20 μM, 24 h",0.3301
same,Myh9 (MYH9) EV abundance Cohen's d,"DYT + Sal/DYT, 20 μM, 24 h",−0.2884
same,Ndnf (NDNF) EV abundance Cohen's d,"DYT + Sal/DYT, 20 μM, 24 h",−0.4227
same,Pcmt1 (PCMT1) EV abundance Cohen's d,"DYT + Sal/DYT, 20 μM, 24 h",−0.2746
same,Pi4ka (PI4KA) EV abundance Cohen's d,"DYT + Sal/DYT, 20 μM, 24 h",0.7656
same,Pitpnb (PITPNB) EV abundance Cohen's d,"DYT + Sal/DYT, 20 μM, 24 h",0.6644
same,Prpsap2 (PRPSAP2) EV abundance Cohen's d,"DYT + Sal/DYT, 20 μM, 24 h",−1.257
same,Psmc5 (PSMC5) EV abundance Cohen's d,"DYT + Sal/DYT, 20 μM, 24 h",1.22
same,Psmd12 (PSMD12) EV abundance Cohen's d,"DYT + Sal/DYT, 20 μM, 24 h",1.234
same,Psme4 (PSME4) EV abundance Cohen's d,"DYT + Sal/DYT, 20 μM, 24 h",−0.3917
same,Ptma (PTMA) EV abundance Cohen's d,"DYT + Sal/DYT, 20 μM, 24 h",0.9729
same,Rap2b (RAP2B) EV abundance Cohen's d,"DYT + Sal/DYT, 20 μM, 24 h",−0.249
same,Rbm3 (RBM3) EV abundance Cohen's d,"DYT + Sal/DYT, 20 μM, 24 h",0.2607
same,Rhoa (RHOA) EV abundance Cohen's d,"DYT + Sal/DYT, 20 μM, 24 h",−0.6572
same,Rpl10 (RPL10) EV abundance Cohen's d,"DYT + Sal/DYT, 20 μM, 24 h",−0.3597
same,Rpl13a (RPL13A) EV abundance Cohen's d,"DYT + Sal/DYT, 20 μM, 24 h",−0.4797
same,Rps13 (RPS13) EV abundance Cohen's d,"DYT + Sal/DYT, 20 μM, 24 h",−0.1409
same,Sec31a (SEC31A) EV abundance Cohen's d,"DYT + Sal/DYT, 20 μM, 24 h",−0.2355
same,Slc2a1 (SLC2A1) EV abundance Cohen's d,"DYT + Sal/DYT, 20 μM, 24 h",−0.3172
same,Stom (STOM) EV abundance Cohen's d,"DYT + Sal/DYT, 20 μM, 24 h",−0.4048
same,Tardbp (TARDBP) EV abundance Cohen's d,"DYT + Sal/DYT, 20 μM, 24 h",0.4522
same,Tgfb2 (TGFB2) EV abundance Cohen's d,"DYT + Sal/DYT, 20 μM, 24 h",−0.3293
same,Tln1 (TLN1) EV abundance Cohen's d,"DYT + Sal/DYT, 20 μM, 24 h",0.5665
same,Tln2 (TLN2) EV abundance Cohen's d,"DYT + Sal/DYT, 20 μM, 24 h",0.5488
same,Tubb1 (TUBB1) EV abundance Cohen's d,"DYT + Sal/DYT, 20 μM, 24 h",0.246
same,Usp7 (USP7) EV abundance Cohen's d,"DYT + Sal/DYT, 20 μM, 24 h",1.229
same,Wdr26 (WDR26) EV abundance Cohen's d,"DYT + Sal/DYT, 20 μM, 24 h",−0.1895
same,Zyx (ZYX) EV abundance Cohen's d,"DYT + Sal/DYT, 20 μM, 24 h",−0.5814
same,Pearson r between ritonavir and salubrinal effects on putative DYT-TOR1A biomarker proteins,"DYT-TOR1A MEF EVs, 20 μM each, 24 h",0.47
same,Acaa1a (ACAA1) EV abundance Cohen's d,"DYT/DYT + Sal, 20 μM, 24 h",−0.1738
same,Ano6 (ANO6) EV abundance Cohen's d,"DYT/DYT + Sal, 20 μM, 24 h",0.1593
same,Ap1b1 (AP1B1) EV abundance Cohen's d,"DYT/DYT + Sal, 20 μM, 24 h",−0.5479
same,Arl8b (ARL8B) EV abundance Cohen's d,"DYT/DYT + Sal, 20 μM, 24 h",−0.5773
same,Bzw2 (BZW2) EV abundance Cohen's d,"DYT/DYT + Sal, 20 μM, 24 h",0.2815
same,Cryab (CRYAB) EV abundance Cohen's d,"DYT/DYT + Sal, 20 μM, 24 h",1.101
same,DIst (DLST) EV abundance Cohen's d,"DYT/DYT + Sal, 20 μM, 24 h",−0.973
same,Ehd4 (EHD4) EV abundance Cohen's d,"DYT/DYT + Sal, 20 μM, 24 h",−0.4717
same,Flna (FLNA) EV abundance Cohen's d,"DYT/DYT + Sal, 20 μM, 24 h",0.4828
same,Fscn1 (FSCN1) EV abundance Cohen's d,"DYT/DYT + Sal, 20 μM, 24 h",0.7138
same,Gart (GART) EV abundance Cohen's d,"DYT/DYT + Sal, 20 μM, 24 h",0.6261
same,Hist1h1b (H1-5) EV abundance Cohen's d,"DYT/DYT + Sal, 20 μM, 24 h",0.4792
same,Hnrnpc (HNRNPC) EV abundance Cohen's d,"DYT/DYT + Sal, 20 μM, 24 h",−0.5111
same,Ipo9 (IPO9) EV abundance Cohen's d,"DYT/DYT + Sal, 20 μM, 24 h",0.1652
same,Jam3 (JAM3) EV abundance Cohen's d,"DYT/DYT + Sal, 20 μM, 24 h",−0.5387
same,Lipg (LIPG) EV abundance Cohen's d,"DYT/DYT + Sal, 20 μM, 24 h",0.6163
same,Lrrc59 (LRRC59) EV abundance Cohen's d,"DYT/DYT + Sal, 20 μM, 24 h",0.4615
same,Mapk3 (MAPK3) EV abundance Cohen's d,"DYT/DYT + Sal, 20 μM, 24 h",−0.3187
same,Mars (MARS1) EV abundance Cohen's d,"DYT/DYT + Sal, 20 μM, 24 h",−0.2456
same,Mrc2 (MRC2) EV abundance Cohen's d,"DYT/DYT + Sal, 20 μM, 24 h",0.3301
same,Myh9 (MYH9) EV abundance Cohen's d,"DYT/DYT + Sal, 20 μM, 24 h",−0.2884
same,Ndnf (NDNF) EV abundance Cohen's d,"DYT/DYT + Sal, 20 μM, 24 h",−0.4227
same,Pcmt1 (PCMT1) EV abundance Cohen's d,"DYT/DYT + Sal, 20 μM, 24 h",−0.2746
same,Pi4ka (PI4KA) EV abundance Cohen's d,"DYT/DYT + Sal, 20 μM, 24 h",0.7656
same,Pitpnb (PITPNB) EV abundance Cohen's d,"DYT/DYT + Sal, 20 μM, 24 h",0.6644
same,Prpsap2 (PRPSAP2) EV abundance Cohen's d,"DYT/DYT + Sal, 20 μM, 24 h",−1.257
same,Psmc5 (PSMC5) EV abundance Cohen's d,"DYT/DYT + Sal, 20 μM, 24 h",1.22
same,Psmd12 (PSMD12) EV abundance Cohen's d,"DYT/DYT + Sal, 20 μM, 24 h",1.234
same,Psme4 (PSME4) EV abundance Cohen's d,"DYT/DYT + Sal, 20 μM, 24 h",−0.3917
same,Ptma (PTMA) EV abundance Cohen's d,"DYT/DYT + Sal, 20 μM, 24 h",0.9729
same,Rap2b (RAP2B) EV abundance Cohen's d,"DYT/DYT + Sal, 20 μM, 24 h",−0.249
same,Rbm3 (RBM3) EV abundance Cohen's d,"DYT/DYT + Sal, 20 μM, 24 h",0.2607
same,Rhoa (RHOA) EV abundance Cohen's d,"DYT/DYT + Sal, 20 μM, 24 h",−0.6572
same,Rpl10 (RPL10) EV abundance Cohen's d,"DYT/DYT + Sal, 20 μM, 24 h",−0.3597
same,Rpl13a (RPL13A) EV abundance Cohen's d,"DYT/DYT + Sal, 20 μM, 24 h",−0.4797
same,Rps13 (RPS13) EV abundance Cohen's d,"DYT/DYT + Sal, 20 μM, 24 h",−0.1409
same,Sec31a (SEC31A) EV abundance Cohen's d,"DYT/DYT + Sal, 20 μM, 24 h",−0.2355
same,Slc2a1 (SLC2A1) EV abundance Cohen's d,"DYT/DYT + Sal, 20 μM, 24 h",−0.3172
same,Stom (STOM) EV abundance Cohen's d,"DYT/DYT + Sal, 20 μM, 24 h",−0.4048
same,Tardbp (TARDBP) EV abundance Cohen's d,"DYT/DYT + Sal, 20 μM, 24 h",0.4522
same,Tgfb2 (TGFB2) EV abundance Cohen's d,"DYT/DYT + Sal, 20 μM, 24 h",−0.3293
same,Tln1 (TLN1) EV abundance Cohen's d,"DYT/DYT + Sal, 20 μM, 24 h",0.5665
same,Tln2 (TLN2) EV abundance Cohen's d,"DYT/DYT + Sal, 20 μM, 24 h",0.5488
same,Tubb1 (TUBB1) EV abundance Cohen's d,"DYT/DYT + Sal, 20 μM, 24 h",0.246
same,Usp7 (USP7) EV abundance Cohen's d,"DYT/DYT + Sal, 20 μM, 24 h",1.229
same,Wdr26 (WDR26) EV abundance Cohen's d,"DYT/DYT + Sal, 20 μM, 24 h",−0.1895
same,Zyx (ZYX) EV abundance Cohen's d,"DYT/DYT + Sal, 20 μM, 24 h",−0.5814
same,proteins reduced in both mouse and human EVs whose abundance is modulated toward correction in DYT1 cells (and toward DYT1-like by ISRIB in WT cells),salubrinal,4 of the 7
